Laboratory results taken from patent US20060063792A1, “Substituted morphinans and methods of their use” (Adolor Corporation, priority 2004, published 2006).

Experiments:
μ opioid receptor [1] = target: T1, μ opioid receptor (Homo sapiens, UniProt P35372); experiment: [3H]diprenorphine receptor binding, cloned human μ opioid receptor
T1 construct: expressed in transfected cells
Experimental: The potencies of the compounds were determined by testing the ability of a range of concentrations of each compound to inhibit the binding of the non-selective opioid antagonist, [^3H]diprenorphine, to the cloned human μ, κ, and δ opioid receptors, expressed in separate cell lines. IC50 values were obtained by nonlinear analysis of the data using GraphPad Prism version 3.00 for Windows (GraphPad Software, San Diego). Ki values were obtained by Cheng-Prusoff corrections of IC50 values.
The receptor binding method (DeHaven and DeHaven-Hudkins, “Characterization of Opioid Receptors”, Current Protocols in Pharmacology (Eds. Enna S J and Williams M) 1.4.1-1.4.12, John Wiley & Sons, Inc., New York (1998)) was a modification of the method of Raynor, et al., Mol. Pharmacol. 45:330-334 (1994). After dilution in buffer A and homogenization as before, membrane proteins (10-80 μg) in 250 μL were added to mixtures containing test compound and [^3H]diprenorphine (0.5 to 1.0 nM, 40,000 to 50,000 dpm) in 250 μL of buffer A in 96-well deep-well polystyrene titer plates (Beckman). […] The filters were rinsed 4 times with 1 mL of cold 50 mM Tris HCl, pH 7.8 and radioactivity remaining on the filters determined by scintillation spectroscopy. Nonspecific binding was determined by the minimum values of the titration curves and was confirmed by separate assay wells containing 10 μM naloxone. Ki values were determined by Cheng-Prusoff corrections of IC50 values derived from nonlinear regression fits of 12 point titration curves using GraphPad Prism® version 3.00 for Windows (GraphPad Software, San Diego, Calif.).
To determine the equilibrium dissociation constant for the inhibitors (Ki), radioligand bound (cpm) in the presence of various concentrations of test compounds was measured. […] The Ki values were then determined from the […] values by the following equation, [formula] where [ligand] is the concentration of radioligand and Kd is the equilibrium dissociation constant for the radioligand.

μ opioid receptor [2] = target: T1, μ opioid receptor; experiment: Inhibition of agonist (loperamide)-stimulated [35S]GTPγS binding to membranes with cloned human μ opioid receptor; assay type: biochemical
Experimental: The potencies of the antagonists were assessed by their abilities to inhibit agonist-stimulated [^35S]GTPγS binding to membranes containing the cloned human μ, κ, or δ opioid receptors. The agonists used were loperamide for the μ opioid receptor, U50488H for the κ opioid receptor, and BW373U86 for the δ opioid receptor.
To determine the IC50 value, which was the concentration to give half-maximal inhibition of agonist-stimulated [^35S]GTPγS binding, the amount of [^35S]GTPγS bound in the presence of a fixed concentration of agonist and various concentrations of antagonist was measured. The fixed concentration of agonist was the EC80 for the agonist, which was the concentration to give 80% of the relative maximum stimulation of […] binding. The IC50 value was determined from a best nonlinear regression fit of the data to the following equation, [formula] where Y is the amount of [^35S]GTPγS bound at each concentration of antagonist, Bottom is the calculated amount of [^35S]GTPγS bound in the presence of an infinite concentration of antagonist, Top is the calculated amount of [^35S]GTPγS bound in the absence of added antagonist, X is the logarithm of the concentration of antagonist, and LogIC50 is the logarithm of the concentration of antagonist where the amount of [^35S]GTPγS bound is halfway between Bottom and Top. The nonlinear regression fit was performed using GraphPad Prism® version 3.00 for Windows (GraphPad Software, San Diego, Calif.). Mouse Gastrointestinal Transit (GIT) Assay (in vivo Assay)

T1 sequence (P35372 whole entry): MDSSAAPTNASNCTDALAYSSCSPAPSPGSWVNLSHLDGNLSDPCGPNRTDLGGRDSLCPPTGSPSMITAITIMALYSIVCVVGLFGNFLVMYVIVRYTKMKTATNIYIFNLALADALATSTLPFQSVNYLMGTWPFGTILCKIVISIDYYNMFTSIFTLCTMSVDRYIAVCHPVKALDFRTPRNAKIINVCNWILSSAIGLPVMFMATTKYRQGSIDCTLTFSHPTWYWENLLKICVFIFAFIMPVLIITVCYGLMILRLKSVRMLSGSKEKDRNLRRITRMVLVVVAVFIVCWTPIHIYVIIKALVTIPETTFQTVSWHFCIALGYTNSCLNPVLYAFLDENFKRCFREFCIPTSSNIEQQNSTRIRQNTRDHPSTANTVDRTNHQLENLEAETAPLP

| Structure (SMILES) | Ki (μ opioid receptor [1]) | IC50 (μ opioid receptor [2]) |
| --- | --- | --- |
| CC(=O)N[C@@]12CC[C@H](NCc3ccccc3)[C@@H]3Oc4c(O)ccc5c4[C@@]31CCN(CC1CC1)[C@@H]2C5 [Example 73, 4,5α-Epoxy-3-hydroxy-14β-acetylamino-6-α-benzylamino-17-(cyclopropylmethyl)morphinan] | 2.8 nM | 4.2 nM |
| O=C(O)CNC(=O)/C=C1/CC[C@@]2(O)[C@H]3Cc4ccc(O)c5c4[C@@]2(CCN3CC2CC2)[C@H]1O5 [Example 33, 4,5α-Epoxy-3,14β-dihydroxy-6,6Z(N-acryloylamino-acetic acid)-17-(cyclopropylmethyl)morphinan] | 3 nM | 21.3 nM |
| O=C(O)CCCC(=O)N[C@@]12CCC(=O)[C@@H]3Oc4c(O)ccc5c4[C@@]31CCN(CC1CC1)[C@@H]2C5 [Example 85] | 4.1 nM | 1.1 nM |
